Measured values reported in PMC11911254 (Pharmacological Reports, 2025).

Tests used:
[1] = Concentration of paracetamol and its metabolites in plasma, CSF and brain cortex by LC-MS/MS; details: for concentration at 30 min: Sprague Dawley, rat; for Concentration in plasma / Concentration in brain: individual values if <3 samples
Experimental: Drug injection protocol is illustrated in Fig. 1.
Male and female postnatal P4 pups and 7–8 week-old non-pregnant females were used. […] In combination therapy experiments, this dose was accompanied by one of the 7 other drugs (Table 1). For all experiments, animals were terminally anesthetized 30 min after the drug injection using inhaled isoflurane (IsoFlo 100% w/w, Abbott Laboratories), and blood, CSF, and brain samples were collected. Blood was collected directly from the right cardiac ventricle, CSF from the cisterna magna, and cortical brain samples from the frontal/parietal lobes dorsal to the lateral ventricles as described previously.
Pregnant E19 dams were anesthetized with ip urethane injection (25% w/v urethane, Sigma, 1 ml/100 g body weight) and placed on a 39 °C heating pad in the supine position. An endotracheal catheter was inserted to maintain a clear airway. Catheters were inserted into the femoral vein and artery for iv drug administration and arterial blood sampling respectively. The cannula was flushed with 0.5 ml of heparinized saline (Hospira Inc, 5,000 units/ml) after drug administration and following each arterial blood sample. Following drug administration to the dams, fetuses were exteriorized and serially collected starting at 30 min post-maternal injection. […] At collection, the viability of each fetus was assessed (presence of a heartbeat, the colour of the umbilical vessels) and blood, CSF, and brain samples were taken along with a time-matched maternal blood sample from the femoral artery. At the end of the experiment, a final maternal blood sample was taken directly from the left cardiac ventricle, and CSF and brain samples were collected.
This method has been described previously for valproate, lamotrigine, and olanzapine and was applied in the present study. Simultaneous quantification was performed for all compounds in plasma, brain, and CSF samples following the addition of respective stable isotope-labeled internal standards.
Linear response range was determined in untreated control rat plasma for each compound at 0.1, 1, 10, 50, 100, 200, 400, and 800 µg/ml.

[2] = design: method as in PMID 7288602; details: rats; single dose of 15 mg/kg; cited from earlier work
[3] = cited from earlier work
[4] = non-pregnant adult rats, 30 min after ip paracetamol 15 mg/kg + lamotrigine 6 mg/kg (PARA+LTG, n=3), median (IQR)

Structure (SMILES): CC(=O)Nc1ccc(O)cc1 [Paracetamol, reference compound]
- concentration at 30 min ([1]; both, brain cortex, intraperitoneal, Concentration in brain, P4 rats, 30 min after ip paracetamol 15 mg/kg + valproate 30 mg/kg (PARA+VPA, n=4), median (IQR) or individual values): 5300 ng/mL
- concentration at 30 min ([1]; both, brain, CSF, 15 mg/kg, brain and CSF concentrations, monotherapy 15 mg/kg, 30 min, all ages (E19, P4, adult)): 5000 to 10000 ng/mL
- concentration at 30 min ([1]; both, plasma, intraperitoneal, 15 mg/kg, Concentration in plasma, P4 rats, 30 min after ip paracetamol 15 mg/kg monotherapy (PARA, n=4), median (IQR)): 5600 ng/mL
- concentration at 30 min ([1]; both, plasma, intraperitoneal, Concentration in plasma, P4 rats, 30 min after ip paracetamol 15 mg/kg + cimetidine 11 mg/kg (PARA+CIM, n=4), median (IQR)): 10600 ng/mL
- concentration at 30 min ([1]; both, plasma, intraperitoneal, Concentration in plasma, P4 rats, 30 min after ip paracetamol 15 mg/kg + digoxin 0.03 mg/kg (PARA+DIG, n=4), median (IQR)): 8200 ng/mL
- concentration at 30 min ([1]; both, plasma, intraperitoneal, Concentration in plasma, P4 rats, 30 min after ip paracetamol 15 mg/kg + fluvoxamine 1.5 mg/kg (PARA+FLX, n=4), median (IQR)): 6500 ng/mL
- concentration at 30 min ([1]; both, plasma, intraperitoneal, Concentration in plasma, P4 rats, 30 min after ip paracetamol 15 mg/kg + lamotrigine 6 mg/kg (PARA+LTG, n=5), median (IQR)): 7200 ng/mL
- concentration at 30 min ([1]; both, plasma, intraperitoneal, Concentration in plasma, P4 rats, 30 min after ip paracetamol 15 mg/kg + lithium 3.2 mg/kg (PARA+Li, n=4), median (IQR)): 4300 ng/mL
- concentration at 30 min ([1]; both, plasma, intraperitoneal, Concentration in plasma, P4 rats, 30 min after ip paracetamol 15 mg/kg + olanzapine 0.15 mg/kg (PARA+OLZ, n=4), median (IQR)): 5600 ng/mL
- concentration at 30 min ([1]; both, plasma, intraperitoneal, Concentration in plasma, P4 rats, 30 min after ip paracetamol 15 mg/kg + valproate 30 mg/kg (PARA+VPA, n=4), median (IQR) or individual values): 6700 ng/mL
- concentration at 30 min ([1]; both, plasma, intraperitoneal, concentration in plasma, P4, monotherapy and combination therapy with any of the drugs investigated): ~5000 ng/mL
- concentration at 30 min ([1]; female, CSF, intraperitoneal, 15 mg/kg, Concentration in CSF, non-pregnant adult rats, 30 min after ip paracetamol 15 mg/kg monotherapy (PARA, n=6), median (IQR)): 5300 ng/mL
- concentration at 30 min ([1]; female, CSF, intraperitoneal, Concentration in CSF, non-pregnant adult rats, 30 min after ip paracetamol 15 mg/kg + cimetidine 11 mg/kg (PARA+CIM, n=3), median (IQR)): 2100 ng/mL
- concentration at 30 min ([1]; female, CSF, intraperitoneal, Concentration in CSF, non-pregnant adult rats, 30 min after ip paracetamol 15 mg/kg + digoxin 0.03 mg/kg (PARA+DIG, n=3), median (IQR)): 4200 ng/mL
- concentration at 30 min ([1]; female, CSF, intraperitoneal, Concentration in CSF, non-pregnant adult rats, 30 min after ip paracetamol 15 mg/kg + fluvoxamine 1.5 mg/kg (PARA+FLX, n=4), median (IQR)): 4400 ng/mL
- concentration at 30 min ([1]; female, CSF, intraperitoneal, Concentration in CSF, non-pregnant adult rats, 30 min after ip paracetamol 15 mg/kg + olanzapine 0.15 mg/kg (PARA+OLZ, n=4), median (IQR)): 4200 ng/mL
- concentration at 30 min ([1]; female, CSF, intraperitoneal, Concentration in CSF, non-pregnant adult rats, 30 min after ip paracetamol 15 mg/kg + valproate 30 mg/kg (PARA+VPA, n=3), median (IQR)): 4700 ng/mL
- concentration at 30 min ([1]; female, brain, intraperitoneal, 15 mg/kg, Concentration in brain, non-pregnant adult rats, 30 min after ip paracetamol 15 mg/kg monotherapy (PARA, n=6), median (IQR)): 8100 ng/mL
- concentration at 30 min ([1]; female, brain, intraperitoneal, Concentration in brain, non-pregnant adult rats, 30 min after ip paracetamol 15 mg/kg + cimetidine 11 mg/kg (PARA+CIM, n=3), median (IQR)): 2900 ng/mL
- concentration at 30 min ([1]; female, brain, intraperitoneal, Concentration in brain, non-pregnant adult rats, 30 min after ip paracetamol 15 mg/kg + olanzapine 0.15 mg/kg (PARA+OLZ, n=4), median (IQR)): 3900 ng/mL
- concentration at 30 min ([1]; female, brain, intraperitoneal, Concentration in brain, non-pregnant adult rats, 30 min after ip paracetamol 15 mg/kg + valproate 30 mg/kg (PARA+VPA, n=3), median (IQR)): 7500 ng/mL
- concentration at 30 min ([1]; female, plasma, intraperitoneal, 15 mg/kg, Concentration in plasma, non-pregnant adult rats, 30 min after ip paracetamol 15 mg/kg monotherapy (PARA, n=6), median (IQR)): 8400 ng/mL
- concentration at 30 min ([1]; female, plasma, intraperitoneal, Concentration in plasma, non-pregnant adult rats, 30 min after ip paracetamol 15 mg/kg + digoxin 0.03 mg/kg (PARA+DIG, n=3), median (IQR)): 4400 ng/mL
- concentration at 30 min ([1]; female, plasma, intraperitoneal, Concentration in plasma, non-pregnant adult rats, 30 min after ip paracetamol 15 mg/kg + fluvoxamine 1.5 mg/kg (PARA+FLX, n=4), median (IQR)): 4600 ng/mL
- concentration at 30 min ([1]; female, plasma, intraperitoneal, Concentration in plasma, non-pregnant adult rats, 30 min after ip paracetamol 15 mg/kg + olanzapine 0.15 mg/kg (PARA+OLZ, n=4), median (IQR)): 6700 ng/mL
- Concentration in plasma ([1]; non-pregnant adult rats, 30 min after ip paracetamol 15 mg/kg + cimetidine 11 mg/kg (PARA+CIM, n=3), median (IQR)): 3.4 (1.0) µg/ml
- Concentration in brain ([1]; non-pregnant adult rats, 30 min after ip paracetamol 15 mg/kg + digoxin 0.03 mg/kg (PARA+DIG, n=3), median (IQR)): 4.3 (1.6) µg/ml
- Concentration in brain [1, 4]: 7.1 (0.7) µg/ml
- Concentration in plasma [1, 4]: 7.5 (1.0) µg/ml
- Concentration in plasma ([1]; non-pregnant adult rats, 30 min after ip paracetamol 15 mg/kg + valproate 30 mg/kg (PARA+VPA, n=3), median (IQR)): 7.5 (1.3) µg/ml
- half-life [2]: around 16 min
- fraction metabolized by glucuronidation via UGT enzymes ([3]; adult humans, liver): 55–60%
- fraction metabolized by sulfation via SULT enzymes ([3]; adult humans, liver): 20–30%
- fraction excreted unchanged in urine ([3]; adult humans): around 4%
- fraction turned into NAPQI via cytochrome P450 enzymes ([3]; adult humans): Up to 10%
- proportion of paracetamol's metabolism by the glutathione metabolic pathway [3]: < 10%
